Reference: paper PMC4467156, “A new chemical inhibitor of angiogenesis and tumorigenesis that targets the VEGF signaling pathway upstream of Ras” (Oncotarget, 2015)

Assays:
[1] = test system: HMEC-GFP cells; test: Scratch wound closure assay, HMEC-GFP; format: cell-based, human; conditions: Homo sapiens; wound closure after 24 h, 10% FCS, tested 3.125 μM to 100 μM
Text: In order to adapt the endothelial scratch wounding assay to the constraints of high throughput screening, we decided to use an endothelial cell line rather than primary cultures for the sake of reproducibility. Since angiogenesis is triggered by capillary endothelial cells, we selected the HMEC-1 cell line which consists of human dermal microvascular endothelial cells stably expressing SV40 […] antigen. We infected this cell line with GFP-encoding retroviral particles and selected one clone (thereafter named HMEC-GFP) that presented a high level of fluorescence and a strong proliferation rate (doubling time in the presence of serum: 22 h). We controlled that GFP expression was stable over at least 50 passages and that these cells still expressed endothelial markers such as VE-cadherin and CD31. In a standard assay, HMEC-GFP cells were grown until confluence in 96-well plates in the presence of serum, scratched with the multi-tip dispenser of the HTS automat, gently rinsed twice to eliminate detached cells and cell debris that could liberate inflammatory and potentially angiogenic cytokines, and incubated for 24 h in the presence of serum and the compounds to be tested. Each well was photographed at time 0 h (after wounding) and 24 h under a motorized epifluorescence microscope and the digitized images were analyzed using Image J to determine the percentage of wound closure (Figure 1A, 1B). Under our standard conditions, the closure rate was 72 ± 4% in the positive controls and 27 ± 4.% in the negative controls.
(§1) Confluent cell monolayers were wounded with a plastic pipet tip, washed gently with phosphate buffer saline (PBS) and treated with complete media containing molecules, as indicated. Cells were placed at 37°C into the incubator and photographed at indicated times. Quantitation of closure of the monolayer was performed using the NIH Image J program (http://rsbweb.nih.gov/ij/). Results are expressed as percentage of wound closure at t = 24 h as compared to the initial wound at t = 0 h.

[2] = Water solubility; format: physicochemical
[3] = test system: 3T3-GFP cells; test: Scratch wound closure assay, 3T3-GFP; format: cell-based; conditions: wound closure after 24 h, 10% FCS, tested 3.125 μM to 100 μM
Text: Using this assay, we screened the academic library of the University of Grenoble, which is composed of 1360 original molecules. Setting the threshold of significant responses at 75% of the maximal inhibition, we identified 80 inhibitory molecules. At this stage, we reasoned that molecules that would affect the cytoskeleton dynamics or the adhesion properties of any cell type would be positive in this assay but would not represent good candidates for further development. We thus decided to perform a secondary counterscreen of the first 80 selected compounds on GFP-expressing 3T3 fibroblasts (3T3-GFP) using the same scratch assay. We then focused our interest on the 5 molecules that inhibited more strongly HMEC-GFP than 3T3-GFP wound healing. […] We synthesized a series of 30 analogs and tested them at various concentrations both on HMEC-GFP and 3T3-GFP cells. […] Dansyl and naphthalimide aromatic groups, found in COB223 and COB227 respectively, appeared very efficient. The presence of the diaminomethyl group on dansyl is critical for the activity of COB223 as shown by the lower efficiency of COB235 (IC50 is 8 times higher than that of COB223). COB223 and COB227 contain a tert-butyloxycarbonyl function (BOC group) as a second hydrophobic group. Replacement of BOC by an amino group decreased the efficiency and the specificity (compare 05-102-L-B09 vs 05-06-L-D03, or COB227 vs COB228).
as §1

[4] = test system: HUVEC cells; test: Scratch assay on HUVEC with or without mitomycin C; format: cell-based, human; conditions: HUVEC pretreated 24 h with 2 μg/mL mitomycin C
Procedure: as §1, with “0 h. […]” for “0 h.”
www.impactjournals.com/oncotarget/ Oncotarget, Supplementary Materials 2015 […]
Figure S1: Effect of COB223 on endothelial cell migration. (A) Scratch assay: Confluent HUVEC cells were pretreated for 24 h without (CTL) or with 2 μg/mL of mitomycin C before a wound was made in the cell monolayer. After wounding, cells were incubated at 37°C in the absence or the presence of 25 μM COB223. Wound closure was measured after 24 h and 48 h of incubation as described in Material and Methods. […]
(B) Boyden chamber assay: The technique is described in Material and Methods. We measured the passage of fluorescently labeled HUVEC cells through a 3 μm-porous membrane in response to fetal calf serum used as a chemo-attractant. […] The Figure represents the mean fluorescence ± SD of duplicate determinations after 24 h or 48h of incubation from two independent experiments. […]

[5] = test system: HUVEC cells; test: 3H-thymidine incorporation, HUVEC; format: cell-based, human; conditions: mitomycin C-treated cells vs untreated, data not shown
Procedure: Cells were treated with molecules in complete medium. After 22 h, 1 μCi per well H^3 thymidine was added for 2 hours. Cells are then fixed by 10% trichloroacetic acid and harvested with 0.2N NaOH, 1% SDS. Radioactivity was measured in a beta counter.

SMILES	IC50 [1]	water solubility [2]	IC50 [3]	melting point	wound healing [4]	3H-thymidine incorporation [5]
CN(C)c1cccc2c(S(=O)(=O)NCCOCCOCCNS(=O)(=O)c3cccc4c(N(C)C)cccc34)cccc12 [COB295, 5-Dimethylamino-N-(2-[2-{2-(5-(dimethylamino)naphthalene-1-sulfonamido)ethoxy}ethoxy]ethyl)naphthalene-1-sulfonamide]	5 µM	lack of water solubility	–	–	–	–
CN(C)c1cccc2c(S(=O)(=O)NCCCNS(=O)(=O)c3cccc4c(N(C)C)cccc34)cccc12 [Compound 05-06-F11, 1,3-bis [5-(Dimethylamino)naphthalene-1-sulfonamido] diaminopropane]	15 µM	lack of water solubility	40 µM	90 °C	–	–
CO[C@@]12[C@H](COC(N)=O)C3=C(C(=O)C(C)=C(N)C3=O)N1C[C@@H]1N[C@@H]12 [mitomycin C, reference compound]	–	–	–	–	slowed down	complete inhibition
